Test results: ChEMBL document CHEMBL1909046, “DrugMatrix in vitro pharmacology data”

Assays:
Vasopressin V1a receptor = Vasopressin V1a receptor (Homo sapiens, UniProt P37288); format: cell membranes, Membrane; conditions: hek293; further: in other assays of this panel Not Active means under 50% inhibition at 10 µM
[1] = DRUGMATRIX: GABAA, Muscimol, Central radioligand binding (ligand: [3H] Muscimol); format: cell membranes, Rattus norvegicus, Wistar, Brain, Membrane; conditions: Not Active = under 50% inhibition at 10 µM
[2] = target: Voltage-gated inwardly rectifying potassium channel KCNH2 (Homo sapiens, UniProt Q12809); conditions: hek293; further: in other assays of this panel Not Active means under 50% inhibition at 10 µM
Carbonic anhydrase 2 = Carbonic anhydrase 2 (Homo sapiens, UniProt P00918); assay: DRUGMATRIX: Carbonic Anhydrase II enzyme inhibition (substrate: 4-Nitrophenyl acetate (4-NPA)); format: tissue-based, Erythrocyte; conditions: erythrocyte; Not Active = under 50% inhibition at 10 µM
Cytochrome P450 2C19 = Cytochrome P450 2C19 (Homo sapiens, UniProt P33261); conditions: bti-tn-5b1-4; further: in other assays of this panel Not Active means under 50% inhibition at 10 µM
[3] = target: T1, Cholecystokinin receptor type A (Homo sapiens, UniProt P32238); format: cell membranes, Membrane; conditions: 1321-n1; further: in other assays of this panel Not Active means under 50% inhibition at 10 µM
T1 sequence (P32238 whole entry): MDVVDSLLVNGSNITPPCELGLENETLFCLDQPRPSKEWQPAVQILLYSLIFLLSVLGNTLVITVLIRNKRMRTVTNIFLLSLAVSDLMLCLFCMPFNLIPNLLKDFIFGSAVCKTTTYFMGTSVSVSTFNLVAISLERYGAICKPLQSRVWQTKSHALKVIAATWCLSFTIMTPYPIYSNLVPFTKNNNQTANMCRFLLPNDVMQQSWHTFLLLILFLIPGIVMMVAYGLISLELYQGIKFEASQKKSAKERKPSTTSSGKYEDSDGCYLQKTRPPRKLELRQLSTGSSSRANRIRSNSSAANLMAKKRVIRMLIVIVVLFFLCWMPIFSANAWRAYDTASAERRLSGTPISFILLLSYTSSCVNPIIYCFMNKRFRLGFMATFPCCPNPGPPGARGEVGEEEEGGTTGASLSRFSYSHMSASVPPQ

Mu-type opioid receptor = Mu-type opioid receptor (Homo sapiens, UniProt P35372); assay: DRUGMATRIX: Opiate mu (OP3, MOP) radioligand binding (ligand: [3H] Diprenorphine); format: cell membranes, CHO-K1, Membrane; conditions: cho-k1; Not Active = under 50% inhibition at 10 µM
Neutrophil elastase = target: T2, Neutrophil elastase (Homo sapiens, UniProt P08246); format: tissue-based
T2 sequence (P08246 whole entry): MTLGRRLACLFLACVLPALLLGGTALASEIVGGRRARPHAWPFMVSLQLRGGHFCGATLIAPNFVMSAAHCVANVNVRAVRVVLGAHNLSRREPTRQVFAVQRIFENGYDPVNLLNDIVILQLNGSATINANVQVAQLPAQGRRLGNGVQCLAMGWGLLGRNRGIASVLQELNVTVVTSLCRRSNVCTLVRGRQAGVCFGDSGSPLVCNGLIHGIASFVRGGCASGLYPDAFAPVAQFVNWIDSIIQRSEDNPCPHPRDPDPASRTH

Chain of Vasopressin V1a receptor (P37288 whole entry): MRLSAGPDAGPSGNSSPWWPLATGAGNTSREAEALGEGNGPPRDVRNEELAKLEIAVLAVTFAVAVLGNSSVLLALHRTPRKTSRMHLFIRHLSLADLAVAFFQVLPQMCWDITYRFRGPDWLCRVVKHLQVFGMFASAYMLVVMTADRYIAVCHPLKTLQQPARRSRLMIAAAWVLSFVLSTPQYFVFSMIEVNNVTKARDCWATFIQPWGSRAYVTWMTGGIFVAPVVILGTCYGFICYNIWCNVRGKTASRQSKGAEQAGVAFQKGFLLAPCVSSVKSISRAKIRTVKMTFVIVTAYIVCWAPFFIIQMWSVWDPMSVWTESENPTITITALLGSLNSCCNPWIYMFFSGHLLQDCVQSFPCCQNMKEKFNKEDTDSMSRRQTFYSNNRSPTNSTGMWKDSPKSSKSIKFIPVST
Chain of Mu-type opioid receptor (P35372 whole entry): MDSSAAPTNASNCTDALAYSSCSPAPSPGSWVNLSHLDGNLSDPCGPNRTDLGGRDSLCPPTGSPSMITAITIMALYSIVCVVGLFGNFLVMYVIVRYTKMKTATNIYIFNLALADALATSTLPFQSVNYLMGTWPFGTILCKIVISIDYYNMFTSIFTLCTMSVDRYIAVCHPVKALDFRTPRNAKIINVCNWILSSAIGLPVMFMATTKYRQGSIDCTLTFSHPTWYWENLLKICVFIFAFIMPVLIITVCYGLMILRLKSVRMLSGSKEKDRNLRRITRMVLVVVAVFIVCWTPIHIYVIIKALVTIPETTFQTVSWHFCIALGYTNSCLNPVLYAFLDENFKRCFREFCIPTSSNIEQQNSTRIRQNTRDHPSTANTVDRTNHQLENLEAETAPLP
Chain of Voltage-gated inwardly rectifying potassium channel KCNH2 (Q12809 whole entry): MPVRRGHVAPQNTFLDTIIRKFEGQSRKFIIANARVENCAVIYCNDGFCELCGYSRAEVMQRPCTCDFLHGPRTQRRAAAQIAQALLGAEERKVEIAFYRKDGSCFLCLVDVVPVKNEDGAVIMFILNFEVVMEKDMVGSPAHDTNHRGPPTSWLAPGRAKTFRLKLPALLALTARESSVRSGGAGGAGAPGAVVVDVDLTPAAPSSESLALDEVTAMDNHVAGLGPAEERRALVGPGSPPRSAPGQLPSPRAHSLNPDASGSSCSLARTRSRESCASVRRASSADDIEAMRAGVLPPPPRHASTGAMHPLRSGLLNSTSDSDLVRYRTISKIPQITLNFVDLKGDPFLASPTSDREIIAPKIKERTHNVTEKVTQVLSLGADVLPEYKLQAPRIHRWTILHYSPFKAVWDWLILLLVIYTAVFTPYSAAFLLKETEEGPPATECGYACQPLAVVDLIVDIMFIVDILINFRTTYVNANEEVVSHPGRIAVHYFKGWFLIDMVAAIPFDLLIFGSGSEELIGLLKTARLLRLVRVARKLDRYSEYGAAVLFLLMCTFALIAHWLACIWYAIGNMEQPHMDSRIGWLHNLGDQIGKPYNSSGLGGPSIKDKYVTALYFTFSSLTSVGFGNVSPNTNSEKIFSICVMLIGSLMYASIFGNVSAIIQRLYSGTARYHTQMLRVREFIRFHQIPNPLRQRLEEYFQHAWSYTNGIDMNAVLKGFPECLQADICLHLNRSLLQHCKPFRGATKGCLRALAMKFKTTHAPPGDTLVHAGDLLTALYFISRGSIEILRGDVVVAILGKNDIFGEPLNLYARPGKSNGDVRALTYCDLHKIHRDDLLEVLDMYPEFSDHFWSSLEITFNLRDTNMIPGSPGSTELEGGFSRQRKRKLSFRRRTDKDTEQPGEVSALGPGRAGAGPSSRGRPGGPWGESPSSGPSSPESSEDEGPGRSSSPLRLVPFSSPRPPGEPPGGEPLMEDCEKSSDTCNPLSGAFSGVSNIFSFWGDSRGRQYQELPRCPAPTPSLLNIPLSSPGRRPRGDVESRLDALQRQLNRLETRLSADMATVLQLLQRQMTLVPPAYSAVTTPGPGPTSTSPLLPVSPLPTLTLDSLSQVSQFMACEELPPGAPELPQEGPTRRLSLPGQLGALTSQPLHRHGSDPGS
Chain of Cytochrome P450 2C19 (P33261 whole entry): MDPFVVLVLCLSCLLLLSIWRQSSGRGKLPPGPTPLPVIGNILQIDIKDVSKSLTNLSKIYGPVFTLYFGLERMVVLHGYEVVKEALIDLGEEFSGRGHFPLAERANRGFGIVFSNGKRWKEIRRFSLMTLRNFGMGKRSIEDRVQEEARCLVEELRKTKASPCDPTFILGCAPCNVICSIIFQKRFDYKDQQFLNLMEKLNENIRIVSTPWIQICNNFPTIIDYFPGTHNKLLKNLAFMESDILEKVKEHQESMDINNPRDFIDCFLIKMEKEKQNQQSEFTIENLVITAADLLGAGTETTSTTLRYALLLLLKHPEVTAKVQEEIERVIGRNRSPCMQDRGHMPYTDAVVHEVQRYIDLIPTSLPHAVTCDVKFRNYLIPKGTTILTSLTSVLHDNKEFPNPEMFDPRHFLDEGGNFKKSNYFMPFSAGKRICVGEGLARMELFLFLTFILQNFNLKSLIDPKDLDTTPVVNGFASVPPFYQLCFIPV

CC(=O)Nc1ccc(O)cc1 [ACETAMINOPHEN]
Not Active: IC50 (Vasopressin V1a receptor) | IC50 [1] | Ki [1] | IC50 [2] | Ki [2] | IC50 (Carbonic anhydrase 2) | IC50 (Cytochrome P450 2C19) | Ki (Cytochrome P450 2C19) | IC50 [3] | IC50 (Mu-type opioid receptor) | IC50 (Neutrophil elastase)

COc1cc2c(c3oc(=O)c4c(c13)CCC4=O)[C@@H]1C=CO[C@@H]1O2 [AFLATOXIN]
Not Active: IC50 (Vasopressin V1a receptor) | Ki (Vasopressin V1a receptor) | IC50 [1] | Ki [1] | IC50 [2] | Ki [2] | IC50 (Carbonic anhydrase 2) | Ki (Carbonic anhydrase 2) | IC50 (Cytochrome P450 2C19) | Ki (Cytochrome P450 2C19) | IC50 [3] | Ki [3] | IC50 (Mu-type opioid receptor) | Ki (Mu-type opioid receptor) | IC50 (Neutrophil elastase) | Ki (Neutrophil elastase)

N=C(N)NC(=O)c1nc(Cl)c(N)nc1N [AMILORIDE]
Not Active: IC50 (Vasopressin V1a receptor) | IC50 [1] | Ki [1] | IC50 [2] | Ki [2] | IC50 (Carbonic anhydrase 2) | IC50 (Cytochrome P450 2C19) | Ki (Cytochrome P450 2C19) | IC50 [3] | IC50 (Mu-type opioid receptor) | IC50 (Neutrophil elastase)

Cc1cc(=O)n(-c2ccccc2)n1C [ANTIPYRINE]
Not Active: IC50 (Vasopressin V1a receptor) | IC50 [1] | Ki [1] | IC50 [2] | Ki [2] | IC50 (Carbonic anhydrase 2) | IC50 (Cytochrome P450 2C19) | Ki (Cytochrome P450 2C19) | IC50 [3] | IC50 (Mu-type opioid receptor) | IC50 (Neutrophil elastase)

CN1C(=O)COc2c(C(=O)NC3CN4CCC3CC4)cc(Cl)cc21 (configuration not stated) [AZASETRON]
Not Active: IC50 (Vasopressin V1a receptor) | IC50 [1] | Ki [1] | IC50 [2] | Ki [2] | IC50 (Carbonic anhydrase 2) | IC50 (Cytochrome P450 2C19) | Ki (Cytochrome P450 2C19) | IC50 [3] | IC50 (Mu-type opioid receptor) | IC50 (Neutrophil elastase)

C[C@H]1C[C@H]2[C@@H]3CCC4=CC(=O)C=C[C@]4(C)[C@@]3(Cl)[C@@H](O)C[C@]2(C)[C@@]1(O)C(=O)CO [BECLOMETHASONE]
Not Active: IC50 (Vasopressin V1a receptor) | IC50 [1] | Ki [1] | IC50 [2] | Ki [2] | IC50 (Carbonic anhydrase 2) | IC50 (Cytochrome P450 2C19) | Ki (Cytochrome P450 2C19) | IC50 [3] | IC50 (Mu-type opioid receptor) | IC50 (Neutrophil elastase)

CCOC(=O)[C@H](CCc1ccccc1)N[C@H]1CCc2ccccc2N(CC(=O)O)C1=O [BENAZEPRIL]
Not Active: IC50 (Vasopressin V1a receptor) | IC50 [1] | Ki [1] | IC50 [2] | Ki [2] | IC50 (Carbonic anhydrase 2) | IC50 (Cytochrome P450 2C19) | Ki (Cytochrome P450 2C19) | IC50 [3] | IC50 (Mu-type opioid receptor) | IC50 (Neutrophil elastase)

Nc1c(CC(=O)O)cccc1C(=O)c1ccc(Br)cc1 [BROMFENAC]
Not Active: IC50 (Vasopressin V1a receptor) | IC50 [1] | Ki [1] | IC50 [2] | Ki [2] | IC50 (Carbonic anhydrase 2) | IC50 (Cytochrome P450 2C19) | Ki (Cytochrome P450 2C19) | IC50 [3] | IC50 (Mu-type opioid receptor) | IC50 (Neutrophil elastase)

CCCCN1CCCCC1C(=O)Nc1c(C)cccc1C.Cl (configuration not stated) [BUPIVACAINE HYDROCHLORIDE]
Not Active: IC50 (Vasopressin V1a receptor) | IC50 [1] | Ki [1] | IC50 [2] | Ki [2] | IC50 (Carbonic anhydrase 2) | IC50 (Cytochrome P450 2C19) | Ki (Cytochrome P450 2C19) | IC50 [3] | IC50 (Mu-type opioid receptor) | IC50 (Neutrophil elastase)

O=C1CC2(CCCC2)CC(=O)N1CCCCN1CCN(c2ncccn2)CC1 [BUSPIRONE]
Not Active: IC50 (Vasopressin V1a receptor) | IC50 [1] | Ki [1] | IC50 [2] | Ki [2] | IC50 (Carbonic anhydrase 2) | IC50 (Cytochrome P450 2C19) | Ki (Cytochrome P450 2C19) | IC50 [3] | IC50 (Mu-type opioid receptor) | IC50 (Neutrophil elastase)

ClC(Cl)Cl [CHLOROFORM]
Not Active: IC50 (Vasopressin V1a receptor) | IC50 [1] | Ki [1] | IC50 [2] | Ki [2] | IC50 (Carbonic anhydrase 2) | IC50 (Cytochrome P450 2C19) | Ki (Cytochrome P450 2C19) | IC50 [3] | IC50 (Mu-type opioid receptor) | IC50 (Neutrophil elastase)

C=C1CC[C@H](O)C/C1=C/C=C1\CCC[C@]2(C)[C@@H]([C@H](C)CCCC(C)C)CC[C@@H]12 [CHOLECALCIFEROL]
Not Active: IC50 (Vasopressin V1a receptor) | IC50 [1] | Ki [1] | IC50 [2] | Ki [2] | IC50 (Carbonic anhydrase 2) | IC50 (Cytochrome P450 2C19) | Ki (Cytochrome P450 2C19) | IC50 [3] | IC50 (Mu-type opioid receptor) | IC50 (Neutrophil elastase)

C[N+](C)(C)CCO.[Cl-] [CHOLINE CHLORIDE]
Not Active: IC50 (Vasopressin V1a receptor) | IC50 [1] | Ki [1] | IC50 [2] | Ki [2] | IC50 (Carbonic anhydrase 2) | IC50 (Cytochrome P450 2C19) | Ki (Cytochrome P450 2C19) | IC50 [3] | IC50 (Mu-type opioid receptor) | IC50 (Neutrophil elastase)

CC(=O)OCC(=O)[C@@]1(O)CC[C@H]2[C@@H]3CCC4=CC(=O)CC[C@]4(C)[C@H]3C(=O)C[C@@]21C [CORTISONE ACETATE]
Not Active: IC50 (Vasopressin V1a receptor) | IC50 [1] | Ki [1] | IC50 [2] | Ki [2] | IC50 (Carbonic anhydrase 2) | IC50 (Cytochrome P450 2C19) | Ki (Cytochrome P450 2C19) | IC50 [3] | IC50 (Mu-type opioid receptor) | IC50 (Neutrophil elastase)

O=c1ccc2ccccc2o1 [COUMARIN]
Not Active: IC50 (Vasopressin V1a receptor) | IC50 [1] | Ki [1] | IC50 [2] | Ki [2] | IC50 (Carbonic anhydrase 2) | IC50 (Cytochrome P450 2C19) | Ki (Cytochrome P450 2C19) | IC50 [3] | IC50 (Mu-type opioid receptor) | IC50 (Neutrophil elastase)

CN(C)/N=N/c1[nH]cnc1C(N)=O [DACARBAZINE]
Not Active: IC50 (Vasopressin V1a receptor) | IC50 [1] | Ki [1] | IC50 [2] | Ki [2] | IC50 (Carbonic anhydrase 2) | IC50 (Cytochrome P450 2C19) | Ki (Cytochrome P450 2C19) | IC50 [3] | IC50 (Mu-type opioid receptor) | IC50 (Neutrophil elastase)

COc1ccc2c(c1)[C@]13CCCC[C@@H]1[C@H](C2)N(C)CC3 [DEXTROMETHORPHAN]
Not Active: IC50 (Vasopressin V1a receptor) | IC50 [1] | Ki [1] | IC50 [2] | Ki [2] | IC50 (Carbonic anhydrase 2) | IC50 (Cytochrome P450 2C19) | Ki (Cytochrome P450 2C19) | IC50 [3] | IC50 (Mu-type opioid receptor) | IC50 (Neutrophil elastase)

CC(=O)Nc1c(I)c(NC(C)=O)c(I)c(C(=O)O)c1I [DIATRIZOIC ACID]
Not Active: IC50 (Vasopressin V1a receptor) | IC50 [1] | Ki [1] | IC50 [2] | Ki [2] | IC50 (Carbonic anhydrase 2) | IC50 (Cytochrome P450 2C19) | Ki (Cytochrome P450 2C19) | IC50 [3] | IC50 (Mu-type opioid receptor) | IC50 (Neutrophil elastase)

O=C(O)Cc1ccccc1Nc1c(Cl)cccc1Cl [DICLOFENAC]
Not Active: IC50 (Vasopressin V1a receptor) | IC50 [1] | Ki [1] | IC50 [2] | Ki [2] | IC50 (Carbonic anhydrase 2) | IC50 (Cytochrome P450 2C19) | Ki (Cytochrome P450 2C19) | IC50 [3] | IC50 (Mu-type opioid receptor) | IC50 (Neutrophil elastase)

C[C@H]1O[C@@H](O[C@H]2[C@@H](O)C[C@H](O[C@H]3[C@@H](O)C[C@H](O[C@H]4CC[C@@]5(C)[C@H](CC[C@@H]6[C@@H]5CC[C@]5(C)[C@@H](C7=CC(=O)OC7)CC[C@]65O)C4)O[C@@H]3C)O[C@@H]2C)C[C@H](O)[C@@H]1O [DIGITOXIN]
Not Active: IC50 (Vasopressin V1a receptor) | IC50 [1] | Ki [1] | IC50 [2] | Ki [2] | IC50 (Carbonic anhydrase 2) | IC50 (Cytochrome P450 2C19) | Ki (Cytochrome P450 2C19) | IC50 [3] | IC50 (Mu-type opioid receptor) | IC50 (Neutrophil elastase)

CCN1CC(CCN2CCOCC2)C(c2ccccc2)(c2ccccc2)C1=O (configuration not stated) [DOXAPRAM]
Not Active: IC50 (Vasopressin V1a receptor) | IC50 [1] | Ki [1] | IC50 [2] | Ki [2] | Ki (Carbonic anhydrase 2) | IC50 (Cytochrome P450 2C19) | Ki (Cytochrome P450 2C19) | IC50 [3] | IC50 (Mu-type opioid receptor) | IC50 (Neutrophil elastase)

Cn1c(=O)c2c(ncn2CC2OCCO2)n(C)c1=O [DOXOFYLLINE]
Not Active: IC50 (Vasopressin V1a receptor) | IC50 [1] | Ki [1] | IC50 [2] | Ki [2] | IC50 (Carbonic anhydrase 2) | IC50 (Cytochrome P450 2C19) | Ki (Cytochrome P450 2C19) | IC50 [3] | IC50 (Mu-type opioid receptor) | IC50 (Neutrophil elastase)
